In US20100298141A1, “SUBSTITUTED PYRIDINE N-OXIDE HERBICIDES” (E. I. DU PONT DE NEMOURS AND COMPANY, priority 2007, published 2010):

Tests used:
Assay in all cases: Test F preemergence test
[1] = test system: quackgrass; assay type: in vivo, Elytrigia repens; details: scale 0 to 100
Summary of the method: (§1)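 Compound in a non-phytotoxic solvent blend with surfactant is applied preemergence to planted seeds or postemergence to sugarcane plants. Plants and controls stay in the greenhouse 14 to 21 days before visual comparison.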

[2] = test system: prickly sida; assay type: in vivo, Sida spinosa; details: scale 0 to 100
Summary of the method: as §1

[3] = test system: naked crabgrass; assay type: in vivo, Digitaria nuda; details: scale 0 to 100
Summary of the method: as §1

[4] = test system: purple nutsedge; assay type: in vivo, Cyperus rotundus; details: scale 0 to 100
Summary of the method: as §1

[5] = test system: Canada horseweed; assay type: in vivo, Conyza canadensis; details: scale 0 to 100
Description: Seeds of plant species selected from bermudagrass (Cynodon dactylon), Surinam grass (Brachiaria decumbens), large crabgrass (Digitaria sanguinalis), green foxtail (Setaria viridis), goosegrass (Eleusine indica), johnsongrass (Sorghum halepense), kochia (Kochia scoparia), pitted morningglory (Ipomoea lacunosa), purple nutsedge (Cyperus rotundus), common ragweed (Ambrosia elation), mustard (Brassica nigra), guineagrass (Panicum maximum), […] (Paspalum dilatatum), barnyardgrass (Echinochloa crus-galli), southern sandbur (Cenchrus echinatus), common sowthistle (Sonchus oleraceous), prickly […] spinosa), Italian ryegrass (Lolium multiflorum), common purslane (Portulaca oleracea), broadleaf signalgrass (Brachiaria platyphylla), common groundsel (Senecio vulgaris), common chickweed (Stellaria media), Virginia dayflower (Commelina virginica), annual bluegrass (Poa annua), naked crabgrass (Digitaria nuda), […] cochinchinensis), quackgrass (Elytrigia repens), Canada horseweed (Conyza canadensis), field bindweed (Convolvulus arvensis), […] (Bidens bipinnata), common mallow (Malva sylvestris), Russian thistle (Salsola kali), and sugarcane (Saccharum officinarum) were planted and treated preemergence with test chemicals formulated in a non-phytotoxic solvent mixture which included a surfactant. At a different time, sugarcane was treated with postemergence applications of some of the test chemicals formulated in the same manner. Plants were approximately 3- to 4-leaf stage for the postemergence treatments. Treated plants and controls were maintained in a greenhouse for 14 to 21 days, after which time all species were compared to controls and visually evaluated. […] A dash (-) response means no test result.

[6] = test system: dallisgrass; assay type: in vivo, Paspalum dilatatum; details: scale 0 to 100
Summary of the method: as §1

[7] = test system: common groundsel; assay type: in vivo, Senecio vulgaris; details: scale 0 to 100
Summary of the method: as §1

[8] = test system: guineagrass; assay type: in vivo, Panicum maximum; details: scale 0 to 100
Summary of the method: as §1

[9] = test system: mustard; assay type: in vivo, Brassica nigra; details: scale 0 to 100
Summary of the method: as §1

[10] = test system: common mallow; assay type: in vivo, Malva sylvestris; details: scale 0 to 100
Summary of the method: as §1

[11] = test system: kochia; assay type: in vivo, Kochia scoparia; details: scale 0 to 100
Summary of the method: as §1

[12] = test system: Virginia dayflower; assay type: in vivo, Commelina virginica; details: scale 0 to 100
Summary of the method: as §1

[13] = test system: bermudagrass; assay type: in vivo, Cynodon dactylon; details: scale 0 to 100
Summary of the method: as §1

[14] = test system: barnyardgrass; assay type: in vivo, Echinochloa crus-galli
Summary of the method: as §1

[15] = test system: pitted morningglory; assay type: in vivo, Ipomoea lacunosa; details: scale 0 to 100
Summary of the method: as §1

[16] = test system: common purslane; assay type: in vivo, Portulaca oleracea; details: scale 0 to 100
Summary of the method: as §1

[17] = test system: annual bluegrass; assay type: in vivo, Poa annua; details: scale 0 to 100
Summary of the method: as §1

[18] = test system: broadleaf signalgrass; assay type: in vivo, Brachiaria platyphylla; details: scale 0 to 100
Summary of the method: as §1

In the case of `CC(Oc1c(C[S+]([O-])c2cccc[n+]2[O-])c(C(F)(F)F)nn1C)C(F)(F)F` (centres unmarked) [Compound 77], the “Plant response rating, Quackgrass” value ([1]; 16 g ai/ha, preemergence) is reported as 0, the “Quackgrass plant response rating” value ([1]; 62 g ai/ha, Preemergence) is reported as 40 and the “Quackgrass plant response rating” value ([1]; 125 g ai/ha, preemergence) is reported as 80. The “Plant response rating, Quackgrass” value ([1]; Preemergence, 31 g ai/ha) was 0, the “Plant response rating, Prickly Sida” value ([2]; 16 g ai/ha, preemergence) was 20 and the “Prickly Sida plant response rating” value ([2]; 62 g ai/ha, Preemergence) was 80. The “Prickly Sida plant response rating” value ([2]; 125 g ai/ha, preemergence) was 80, the “Plant response rating, Prickly Sida” value ([2]; Preemergence, 31 g ai/ha) was 30 and the “Plant response rating, Crabgrass, Naked” value ([3]; 16 g ai/ha, preemergence) was 0. The “Crabgrass, Naked plant response rating” value ([3]; 62 g ai/ha, Preemergence) was 90, the “Crabgrass, Naked plant response rating” value ([3]; 125 g ai/ha, preemergence) was 100 and the “Plant response rating, Crabgrass, Naked” value ([3]; Preemergence, 31 g ai/ha) was 75. For the same molecule, the “Plant response rating, Purple Nutsedge” value ([4]; 16 g ai/ha, preemergence) was 0, the “Purple Nutsedge plant response rating” value ([4]; 125 g ai/ha, preemergence) was 75 and the “Plant response rating, Purple Nutsedge” value ([4]; Preemergence, 31 g ai/ha) was 60. The “Plant response rating, Horseweed” value ([5]; 16 g ai/ha, preemergence) was 0, the “Horseweed plant response rating” value ([5]; 62 g ai/ha, Preemergence) was 98 and the “Horseweed plant response rating” value ([5]; 125 g ai/ha, preemergence) was 100. The “Plant response rating, Horseweed” value ([5]; Preemergence, 31 g ai/ha) was 50, the “Plant response rating, Dallisgrass” value ([6]; 16 g ai/ha, preemergence) was 0 and the “Dallisgrass plant response rating” value ([6]; 62 g ai/ha, Preemergence) was 98. For the same molecule, the “Dallisgrass plant response rating” value ([6]; 125 g ai/ha, preemergence) was 100, the “Plant response rating, Dallisgrass” value ([6]; Preemergence, 31 g ai/ha) was 30 and the “Plant response rating, Groundsel” value ([7]; 16 g ai/ha, preemergence) was 0. For the same molecule, the “Groundsel plant response rating” value ([7]; 62 g ai/ha, Preemergence) was 0, the “Groundsel plant response rating” value ([7]; 125 g ai/ha, preemergence) was 0 and the “Plant response rating, Groundsel” value ([7]; Preemergence, 31 g ai/ha) was 0. The “Plant response rating, Guineagrass” value ([8]; 16 g ai/ha, preemergence) was 15, the “Guineagrass plant response rating” value ([8]; 62 g ai/ha, Preemergence) was 100 and the “Guineagrass plant response rating” value ([8]; 125 g ai/ha, preemergence) was 100. The “Plant response rating, Guineagrass” value ([8]; Preemergence, 31 g ai/ha) was 80, the “Plant response rating, Black Mustard” value ([9]; 16 g ai/ha, preemergence) was 0 and the “Black Mustard plant response rating” value ([9]; 62 g ai/ha, Preemergence) was 65. The “Black Mustard plant response rating” value ([9]; 125 g ai/ha, preemergence) was 100, the “Plant response rating, Black Mustard” value ([9]; Preemergence, 31 g ai/ha) was 20 and the “Plant response rating, Mallow” value ([10]; 16 g ai/ha, preemergence) was 65. For the same molecule, the “Mallow plant response rating” value ([10]; 62 g ai/ha, Preemergence) was 90, the “Mallow plant response rating” value ([10]; 125 g ai/ha, preemergence) was 100 and the “Plant response rating, Mallow” value ([10]; Preemergence, 31 g ai/ha) was 90. The “Plant response rating, Kochia” value ([11]; 16 g ai/ha, preemergence) was 0, the “Kochia plant response rating” value ([11]; 62 g ai/ha, Preemergence) was 75 and the “Kochia plant response rating” value ([11]; 125 g ai/ha, preemergence) was 100. The “Plant response rating, Kochia” value ([11]; Preemergence, 31 g ai/ha) was 0, the “Plant response rating, Dayflower” value ([12]; 16 g ai/ha, preemergence) was 0 and the “Dayflower plant response rating” value ([12]; 62 g ai/ha, Preemergence) was 0. The “Dayflower plant response rating” value ([12]; 125 g ai/ha, preemergence) was 100, the “Plant response rating, Dayflower” value ([12]; Preemergence, 31 g ai/ha) was 0 and the “Plant response rating, Bermudagrass” value ([13]; 16 g ai/ha, preemergence) was 0. For the same molecule, the “Bermudagrass plant response rating” value ([13]; 62 g ai/ha, Preemergence) was 80, the “Bermudagrass plant response rating” value ([13]; 125 g ai/ha, preemergence) was 95 and the “Plant response rating, Bermudagrass” value ([13]; Preemergence, 31 g ai/ha) was 30. The “Plant response rating, Barnyardgrass” value ([14]; 16 g ai/ha, preemergence, scale 0 to 100 (0 no effect, 100 complete control)) was 65, the “Barnyardgrass plant response rating” value ([14]; 62 g ai/ha, Preemergence, scale 0 to 100) was 100 and the “Barnyardgrass plant response rating” value ([14]; 125 g ai/ha, preemergence, scale 0 to 100) was 100. For the same molecule, the “Plant response rating, Barnyardgrass” value ([14]; Preemergence, 31 g ai/ha, scale 0 to 100) was 90, the “Plant response rating, Morningglory” value ([15]; 16 g ai/ha, preemergence) was 0 and the “Morningglory plant response rating” value ([15]; 62 g ai/ha, Preemergence) was 60. For the same molecule, the “Morningglory plant response rating” value ([15]; 125 g ai/ha, preemergence) was 90, the “Plant response rating, Morningglory” value ([15]; Preemergence, 31 g ai/ha) was 35 and the “Plant response rating, Purslane” value ([16]; 16 g ai/ha, preemergence) was 0. The “Purslane plant response rating” value ([16]; 62 g ai/ha, Preemergence) was 20, the “Purslane plant response rating” value ([16]; 125 g ai/ha, preemergence) was 65 and the “Plant response rating, Purslane” value ([16]; Preemergence, 31 g ai/ha) was 0. The “Plant response rating, Bluegrass” value ([17]; 16 g ai/ha, preemergence) was 0, the “Bluegrass plant response rating” value ([17]; 62 g ai/ha, Preemergence) was 0 and the “Bluegrass plant response rating” value ([17]; 125 g ai/ha, preemergence) was 75. The “Plant response rating, Bluegrass” value ([17]; Preemergence, 31 g ai/ha) was 0, the “Plant response rating, Signalgrass” value ([18]; 16 g ai/ha, preemergence) was 0 and the “Signalgrass plant response rating” value ([18]; 125 g ai/ha, preemergence) was 90. The “Plant response rating, Signalgrass” value ([18]; Preemergence, 62 g ai/ha) was 75 and the “Plant response rating, Signalgrass” value ([18]; Preemergence, 31 g ai/ha) was 25.
